In patent US12122778B2, “Activating pyruvate kinase R” (Novo Nordisk Health Care AG, priority 2018, dated 2024) one finds activation, AC50 and Emax data, which are given here for 14 molecules.

For orientation: AC50 means the midpoint of the concentration-response curve, whichever way the signal moves.

One experiment deals with PKR(R510Q) (Homo sapiens, UniProt P30613, R510Q). The experiment in a line: Luminescence Biochemical Assay (Kinase Glo Plus), PKR R510Q mutant. The note with it: without FBP; for activation at 1.54 µM: 1.54 μM compound, read-out: AC50 LUM KGP woFBP % Fold@1.54 μM mean; for AC50: read-out: AC50 LUM KGP woFBP AC50 μM gmean; for Emax: read-out: AC50 LUM KGP woFBP MAX % FOLD mean. (Kinase-Glo reads ATP consumption through a luciferase reaction.)
Chain of PKR(R510Q) (P30613 whole entry R510Q): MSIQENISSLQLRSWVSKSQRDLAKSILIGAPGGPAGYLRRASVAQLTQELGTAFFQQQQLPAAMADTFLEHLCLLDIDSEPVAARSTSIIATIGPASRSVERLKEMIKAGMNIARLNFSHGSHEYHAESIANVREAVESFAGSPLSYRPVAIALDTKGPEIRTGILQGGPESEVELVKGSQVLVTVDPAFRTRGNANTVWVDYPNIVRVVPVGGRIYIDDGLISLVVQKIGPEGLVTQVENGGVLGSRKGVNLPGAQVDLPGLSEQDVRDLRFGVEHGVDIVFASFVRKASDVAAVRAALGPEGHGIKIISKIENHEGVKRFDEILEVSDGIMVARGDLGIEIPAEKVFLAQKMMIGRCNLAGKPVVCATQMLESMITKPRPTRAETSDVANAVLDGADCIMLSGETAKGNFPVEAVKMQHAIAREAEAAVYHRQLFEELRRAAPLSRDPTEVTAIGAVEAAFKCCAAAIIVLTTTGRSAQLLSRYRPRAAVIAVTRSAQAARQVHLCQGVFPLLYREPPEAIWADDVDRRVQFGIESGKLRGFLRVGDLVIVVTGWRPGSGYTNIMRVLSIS

The target in another experiment is PKR(wt) (Homo sapiens, UniProt P30613). Description: Luminescence Biochemical Assay (Kinase Glo Plus), wild type PKR. The note with it: without FBP; for activation at 1.54 µM: 1.54 μM compound, read-out: AC50 LUM KGP woFBP % Fold@1.54 μM mean; for AC50: read-out: AC50 LUM KGP woFBP AC50 μM gmean; for Emax: read-out: AC50 LUM KGP woFBP MAX % FOLD mean.
Chain of PKR(wt) (P30613 whole entry): as the sequence (P30613 whole entry R510Q) above, with Q510R counted along it
In the next experiment the target is PKR(G332S) (Homo sapiens, UniProt P30613, G332S). Description: Luminescence Biochemical Assay (Kinase Glo Plus), PKR G332S mutant. The note with it: with FBP; for activation at 1.54 µM: 1.54 μM compound, read-out: AC50 LUM KGP FBP % Fold@1.54 μM mean; for AC50: read-out: AC50 LUM KGP FBP AC50 μM gmean (column A); for Emax: read-out: AC50 LUM KGP FBP MAX % FOLD mean.
Chain of PKR(G332S) (P30613 whole entry G332S): as the sequence (P30613 whole entry R510Q) above, with G332S, Q510R counted along it

Turning to `O=C([C@H](O)c1ccccc1)N1CC2=C(C1)CN(S(=O)(=O)c1ccc(OC(F)F)cc1)C2` [Example 18-13, (2R)-1-{5-[4-(difluoromethoxy)benzenesulfonyl]-1H,2H,3H,4H,5H,6H-pyrrolo[3,4-c]pyrrol-2-yl}-2-hydroxy-2-phenylethan-1-one], at PKR(R510Q), the activation at 1.54 µM was 250 to 50000%, the AC50 is at most 0.1 µM and the Emax is 250 to 500%. For the same molecule, at PKR(wt), the activation at 1.54 µM fell in the range of 250 to 50000%, the AC50 was at most 0.1 µM and the Emax lay within 250 to 500%. In addition, at PKR(G332S), the activation at 1.54 µM lay in the range of 75 to 250%, the AC50 was at most 0.1 µM and the Emax lay in the range of 75 to 250%.

In the case of `O=C([C@H](O)c1ccccc1)N1CC2=C(C1)CN(S(=O)(=O)c1cccc(OC(F)F)c1)C2` [Example 18-15, (2R)-1-{5-[3-(difluoromethoxy)benzene-sulfonyl]-1H,2H,3H,4H,5H,6H-pyrrolo[3,4-c]pyrrol-2-yl}-2-hydroxy-2-phenylethan-1-one], on PKR(R510Q), the activation at 1.54 µM fell in the range of 250 to 50000%, the AC50 is at most 0.1 µM and the Emax fell in the range of 250 to 500%. Also, on PKR(wt), the activation at 1.54 µM fell in the range of 75 to 250%, the AC50 was at most 0.1 µM and the Emax was 75 to 250%. Moreover, at PKR(G332S), the activation at 1.54 µM fell in the range of 75 to 250%, the AC50 was at most 0.1 µM and the Emax lay in the range of 75 to 250%.

`O=C(Cn1cnnn1)N1CC2=C(C1)CN(S(=O)(=O)c1ccc(OC(F)F)cc1)C2` [Example 18-19, 1-(5-((4-(difluoromethoxy)phenyl)sulfonyl)-3,4,5,6-tetrahydropyrrolo[3,4-c]pyrrol-2(1H)-yl)-2-(1H-tetrazol-1-yl)ethan-1-one]: on PKR(R510Q), the activation at 1.54 µM is 250 to 50000%, the AC50 is 0.1 to 1 µM and the Emax was in the range of 250 to 500%. Also, on PKR(wt), the activation at 1.54 µM is 250 to 50000%, the AC50 was in the range of 0.1 to 1 µM and the Emax was 250 to 500%. Moreover, at PKR(G332S), the activation at 1.54 µM was 75 to 250%, the AC50 is at most 0.1 µM and the Emax was 75 to 250%.

Consider `Cc1nc(CC(=O)N2CC3=C(C2)CN(S(=O)(=O)c2ccc(OC(F)F)cc2)C3)cs1` [Example 18-20, 1-{5-[4-(Difluoromethoxy)benzene-sulfonyl]-1H,2H,3H,4H,5H,6H-pyrrolo[3,4-c]pyrrol-2-yl}-2-(2-methyl-1,3-thiazol-4-yl)ethan-1-one], for which, at PKR(R510Q), the activation at 1.54 µM is 75 to 250%, the AC50 was in the range of 1 to 40 µM and the Emax was 250 to 500%. In addition, at PKR(wt), the activation at 1.54 µM lay in the range of 250 to 50000%, the AC50 lay within 0.1 to 1 µM and the Emax fell in the range of 250 to 500%. In addition, on PKR(G332S), the activation at 1.54 µM was in the range of 75 to 250%, the AC50 fell in the range of 1 to 40 µM and the Emax fell in the range of 75 to 250%.

`O=C(Cn1cccn1)N1CC2=C(C1)CN(S(=O)(=O)c1ccc(OC(F)F)cc1)C2` [Example 18-21, 1-{5-[4-(Difluoromethoxy)benzenesulfonyl]-1H,2H,3H,4H,5H,6H-pyrrolo[3,4-c]pyrrol-2-yl}-2-(1H-pyrazol-1-yl)ethan-1-one]: at PKR(R510Q), the activation at 1.54 µM was 75 to 250%, the AC50 lay within 1 to 40 µM and the Emax lay in the range of 250 to 500%. In addition, at PKR(wt), the activation at 1.54 µM fell in the range of 75 to 250%, the AC50 was 1 to 40 µM and the Emax was 250 to 500%. On PKR(G332S), the activation at 1.54 µM is 75 to 250%, the AC50 was in the range of 0.1 to 1 µM and the Emax is 75 to 250%.

On to `O=C(C(O)c1cccc(F)c1)N1CC2=C(C1)CN(S(=O)(=O)c1ccc(OC(F)F)cc1)C2` (stereo not drawn) [Example 18-22, 1-{5-[4-(Difluoromethoxy)benzenesulfonyl]-1H,2H,3H,4H,5H,6H-pyrrolo[3,4-c]pyrrol-2-yl}-2-(3-fluorophenyl)-2-hydroxyethan-1-one], for which, at PKR(R510Q), the activation at 1.54 µM lay in the range of 250 to 50000%, the AC50 lay in the range of 0.1 to 1 µM and the Emax was in the range of 250 to 500%. Besides, at PKR(wt), the activation at 1.54 µM lay in the range of 75 to 250%, the AC50 fell in the range of 0.1 to 1 µM and the Emax lay in the range of 250 to 500%. For the same molecule, on PKR(G332S), the activation at 1.54 µM was in the range of 75 to 250%, the AC50 was at most 0.1 µM and the Emax was 75 to 250%.

`O=C(C(O)c1ccc(F)c(F)c1)N1CC2=C(C1)CN(S(=O)(=O)c1ccc(OC(F)F)cc1)C2` (stereo not drawn) [Example 18-23, 1-{5-[4-(Difluoromethoxy)benzenesulfonyl]-1H,2H,3H,4H,5H,6H-pyrrolo[3,4-c]pyrrol-2-yl}-2-(3,4-difluorophenyl)-2-hydroxyethan-1-one]: at PKR(R510Q), the activation at 1.54 µM fell in the range of 250 to 50000%, the AC50 lay in the range of 1 to 40 µM and the Emax fell in the range of 250 to 500%. Further, on PKR(wt), the activation at 1.54 µM lay in the range of 75 to 250%, the AC50 is 0.1 to 1 µM and the Emax was 250 to 500%. In addition, at PKR(G332S), the activation at 1.54 µM lay within 75 to 250%, the AC50 was 0.1 to 1 µM and the Emax lay within 75 to 250%.

For `O=C(C(F)c1ccccc1)N1CC2=C(C1)CN(S(=O)(=O)c1ccc(OC(F)F)cc1)C2` (stereo not drawn) [Example 18-24, 1-{5-[4-(Difluoromethoxy)benzenesulfonyl]-1H,2H,3H,4H,5H,6H-pyrrolo[3,4-c]pyrrol-2-yl}-2-fluoro-2-phenylethan-1-one], at PKR(R510Q), the activation at 1.54 µM is 250 to 50000%, the AC50 is at most 0.1 µM and the Emax was in the range of 250 to 500%. In addition, at PKR(wt), the activation at 1.54 µM lay in the range of 250 to 50000%, the concentration at half-maximal activity (AC50) was 0.1 to 1 µM and the Emax lay within 250 to 500%. In addition, at PKR(G332S), the activation at 1.54 µM fell in the range of 75 to 250%, the AC50 was at most 0.1 µM and the Emax fell in the range of 75 to 250%.

Regarding `O=C(N1CC2=C(C1)CN(S(=O)(=O)c1ccc(OC(F)F)cc1)C2)C(F)(F)c1ccccc1` [Example 18-25, 1-(5-((4-(Difluoromethoxy)phenyl)sulfonyl)-3,4,5,6-tetrahydropyrrolo[3,4-c]pyrrol-2(1H)-yl)-2,2-difluoro-2-phenylethan-1-one], on PKR(R510Q), the activation at 1.54 µM lay within 250 to 50000%, the AC50 was at most 0.1 µM and the Emax was in the range of 250 to 500%. On PKR(wt), the activation at 1.54 µM fell in the range of 250 to 50000%, the AC50 was at most 0.1 µM and the Emax was 250 to 500%. Moreover, on PKR(G332S), the activation at 1.54 µM was 75 to 250%, the AC50 was at most 0.1 µM and the Emax lay in the range of 75 to 250%.

`O=C(Cc1cccnc1)N1CC2=C(C1)CN(S(=O)(=O)c1ccc(OC(F)F)cc1)C2` [Example 18-26, 1-{5-[4-(Difluoromethoxy)benzenesulfonyl]-1H,2H,3H,4H,5H,6H-pyrrolo[3,4-c]pyrrol-2-yl}-2-(pyridin-3-yl)ethan-1-one]: the activation at 1.54 µM was 250 to 50000% on PKR(R510Q), 250 to 50000% at PKR(wt) and 75 to 250% at PKR(G332S). Moreover, the AC50 was 0.1 to 1 µM at PKR(R510Q), 0.1 to 1 µM on PKR(wt) and at most 0.1 µM at PKR(G332S). Also, the Emax lay within 250 to 500% at PKR(R510Q), 250 to 500% on PKR(wt) and 75 to 250% on PKR(G332S).

In the case of `O=C(Cc1ccc[nH]1)N1CC2=C(C1)CN(S(=O)(=O)c1ccc(OC(F)F)cc1)C2` [Example 18-27, 1-{5-[4-(Difluoromethoxy)benzenesulfonyl]-1H,2H,3H,4H,5H,6H-pyrrolo[3,4-c]pyrrol-2-yl}-2-(1H-pyrrol-2-yl)ethan-1-one], the activation at 1.54 µM at PKR(R510Q), on PKR(wt) and on PKR(G332S) was 75 to 250% throughout. Further, the AC50 at PKR(R510Q), on PKR(wt) and on PKR(G332S) was 1 to 40 µM each time. The Emax on PKR(R510Q), at PKR(wt) and on PKR(G332S) was 75 to 250% throughout.

As to `O=C(Cc1ncccn1)N1CC2=C(C1)CN(S(=O)(=O)c1ccc(OC(F)F)cc1)C2` [Example 18-28, 1-{5-[4-(Difluoromethoxy)benzenesulfonyl]-1H,2H,3H,4H,5H,6H-pyrrolo[3,4-c]pyrrol-2-yl}-2-(pyrimidin-2-yl)ethan-1-one], the activation at 1.54 µM is 250 to 50000% at PKR(R510Q), 250 to 50000% on PKR(wt) and 75 to 250% at PKR(G332S). The AC50 on PKR(R510Q) was 1 to 40 µM; at PKR(wt), 1 to 40 µM; on PKR(G332S), 0.1 to 1 µM. In addition, the values for the Emax at PKR(R510Q), at PKR(wt) and on PKR(G332S) were 250 to 500%, 250 to 500% and 75 to 250%, respectively.

As to `O=C(Cc1cnccn1)N1CC2=C(C1)CN(S(=O)(=O)c1ccc(OC(F)F)cc1)C2` [Example 18-29, 1-{5-[4-(Difluoromethoxy)benzenesulfonyl]-1H,2H,3H,4H,5H,6H-pyrrolo[3,4-c]pyrrol-2-yl}-2-(pyrazin-2-yl)ethan-1-one], at PKR(R510Q), the activation at 1.54 µM was in the range of 75 to 250%, the AC50 is 1 to 40 µM and the Emax was 250 to 500%. For the same molecule, on PKR(wt), the activation at 1.54 µM was in the range of 75 to 250%, the concentration at half-maximal activity (AC50) was in the range of 1 to 40 µM and the Emax was 250 to 500%. At PKR(G332S), the activation at 1.54 µM lay within 75 to 250%, the AC50 is at most 0.1 µM and the Emax is 75 to 250%.

With `Cc1ccc(CC(=O)N2CC3=C(C2)CN(S(=O)(=O)c2ccc(OC(F)F)cc2)C3)cn1` [Example 18-30, 1-{5-[4-(Difluoromethoxy)benzenesulfonyl]-1H,2H,3H,4H,5H,6H-pyrrolo[3,4-c]pyrrol-2-yl}-2-(6-methylpyridin-3-yl)ethan-1-one], at PKR(R510Q), the activation at 1.54 µM was in the range of 250 to 50000%, the concentration at half-maximal activity (AC50) fell in the range of 0.1 to 1 µM and the Emax lay in the range of 250 to 500%. Also, on PKR(wt), the activation at 1.54 µM lay in the range of 250 to 50000%, the AC50 is 0.1 to 1 µM and the Emax lay in the range of 250 to 500%. In addition, on PKR(G332S), the activation at 1.54 µM was 75 to 250%, the AC50 was at most 0.1 µM and the Emax was 75 to 250%.
